# According to PMC7898037, “Improving mitochondria and ER stability helps eliminate upper motor neuron degeneration that occurs due to mSOD1 toxicity and TDP‐43 pathology” (Clinical and Translational Medicine, 2021):
# Tested on: WT‐UeGFP mice
# Test: Hanging wire test (max 60 s), WT‐UeGFP mice
# Format: in vivo
# Set-up: Mean Diff. (wire hanging), vehicle vs. NU-9 / Mean (wire hanging): unit not given here
# Conditions: for Hanging wire test, group mean (Mean 1 / Mean 2): WT-UeGFP mice; for wire hanging, Average / Mean (wire hanging): WT-UeGFP
# Procedure: hSOD1^G93A‐UeGFP, prpTDP‐43^A315T‐UeGFP and WT‐UeGFP mice were weighed and the required NU‐9 dose per weight was calculated (20 or 100 mg/kg), which was administered once daily by oral gavage, starting at postnatal day (P)60 and continuing until P120. Animals from the untreated group received the vehicle (NMP and olive oil) only. For oral administration purposes, 20 ga × 38 mm plastic feeding tubes were used (Instech Laboratories, Inc). The gavage tip was inserted into the mouth directly over the tongue and into the pharynx. While observing the swallowing reflex, the tip was safely and smoothly slid into the esophagus. Once the administration was completed, the gavage tip was pulled straight out.
# Behavior data were collected from hSOD1^G93A‐UeGFP and WT‐UeGFP mice (starting at P60 and every 7 days until P116) and from prpTDP‐43^A315T‐UeGFP mice (at P60, P90, and P120) with the following number of mice for each group: WT‐UeGFP vehicle (n = 10), hSOD1^G93A‐UeGFP vehicle (n = 6), WT‐UeGFP 20 mg/kg/day NU‐9 (n = 5), hSOD1^G93A‐UeGFP 20 mg/kg/day NU‐9 (n = 7), WT‐UeGFP 100 mg/kg/day NU‐9 (n = 11), hSOD1^G93A‐UeGFP 100 mg/kg/day NU‐9 (n = 9), prpTDP‐43^A315T‐UeGFP untreated (n ≥ 3), and prpTDP‐43^A315T‐UeGFP 100 mg/kg/day NU‐9 (n = 4) (Table S3).
# Mice were placed on a wire mesh, which was then inverted and suspended above the home cage; the time when the animal fell was recorded. This test was performed three times for a maximum of 60 s each session, with a 1‐min rest period between each trial. The average performance for each session is presented as the average of the three trials.
# [1] = WT-UeGFP vehicle vs. NU-9 20 mg/kg/day, P102
# [2] = WT-UeGFP vehicle vs. NU-9 20 mg/kg/day, P109
# [3] = WT-UeGFP vehicle vs. NU-9 20 mg/kg/day, P116
# [4] = WT-UeGFP vehicle vs. NU-9 100 mg/kg/day, P102
# [5] = WT-UeGFP vehicle vs. NU-9 100 mg/kg/day, P109
# [6] = WT-UeGFP vehicle vs. NU-9 100 mg/kg/day, P116
structure (smiles),measurement,setting,value
C[C@H](Oc1cc(C(F)(F)F)cc(C(F)(F)F)c1)C1CC(=O)CC(=O)C1 [NU‐9],"Hanging wire test, group mean (Mean 1 / Mean 2)","NU-9 20 mg/kg/day, P102, max 60 s",60 s
same,"Hanging wire test, group mean (Mean 1 / Mean 2)","NU-9 20 mg/kg/day, P109, max 60 s",60 s
same,"Hanging wire test, group mean (Mean 1 / Mean 2)","NU-9 20 mg/kg/day, P116, max 60 s",60 s
same,"Hanging wire test, group mean (Mean 1 / Mean 2)","NU-9 100 mg/kg/day, P102, max 60 s",60 s
same,"Hanging wire test, group mean (Mean 1 / Mean 2)","NU-9 100 mg/kg/day, P109, max 60 s",60 s
same,"Hanging wire test, group mean (Mean 1 / Mean 2)","NU-9 100 mg/kg/day, P116, max 60 s",59.7 s
same,"Mean Diff. (wire hanging), vehicle vs. NU-9","WT-UeGFP vehicle vs. NU-9 20 mg/kg/day, P60",0
same,"Mean Diff. (wire hanging), vehicle vs. NU-9","WT-UeGFP vehicle vs. NU-9 20 mg/kg/day, P67",0.3333
same,"Mean Diff. (wire hanging), vehicle vs. NU-9","WT-UeGFP vehicle vs. NU-9 20 mg/kg/day, P74",2.267
same,"Mean Diff. (wire hanging), vehicle vs. NU-9","WT-UeGFP vehicle vs. NU-9 20 mg/kg/day, P81",0
same,"Mean Diff. (wire hanging), vehicle vs. NU-9","WT-UeGFP vehicle vs. NU-9 20 mg/kg/day, P88",0
same,"Mean Diff. (wire hanging), vehicle vs. NU-9","WT-UeGFP vehicle vs. NU-9 20 mg/kg/day, P95",2
same,"Hanging wire test, mean difference vehicle minus NU-9",[1],0 s
same,"Mean Diff. (wire hanging), vehicle vs. NU-9",[1],0
same,"Hanging wire test, mean difference vehicle minus NU-9",[2],0 s
same,"Mean Diff. (wire hanging), vehicle vs. NU-9",[2],0
same,"Hanging wire test, mean difference vehicle minus NU-9",[3],0 s
same,"Mean Diff. (wire hanging), vehicle vs. NU-9",[3],0
same,"Mean Diff. (wire hanging), vehicle vs. NU-9","WT-UeGFP vehicle vs. NU-9 100 mg/kg/day, P60",1.273
same,"Mean Diff. (wire hanging), vehicle vs. NU-9","WT-UeGFP vehicle vs. NU-9 100 mg/kg/day, P67",0
same,"Mean Diff. (wire hanging), vehicle vs. NU-9","WT-UeGFP vehicle vs. NU-9 100 mg/kg/day, P74",0
same,"Mean Diff. (wire hanging), vehicle vs. NU-9","WT-UeGFP vehicle vs. NU-9 100 mg/kg/day, P81",0
same,"Mean Diff. (wire hanging), vehicle vs. NU-9","WT-UeGFP vehicle vs. NU-9 100 mg/kg/day, P88",0.1818
same,"Mean Diff. (wire hanging), vehicle vs. NU-9","WT-UeGFP vehicle vs. NU-9 100 mg/kg/day, P95",0
same,"Hanging wire test, mean difference vehicle minus NU-9",[4],0 s
same,"Mean Diff. (wire hanging), vehicle vs. NU-9",[4],0
same,"Hanging wire test, mean difference vehicle minus NU-9",[5],0 s
same,"Mean Diff. (wire hanging), vehicle vs. NU-9",[5],0
same,"Hanging wire test, mean difference vehicle minus NU-9",[6],0.303 s
same,"Mean Diff. (wire hanging), vehicle vs. NU-9",[6],0.303
same,"wire hanging, Average","NU-9 20 mg/kg/day po, P60",60 s
same,"wire hanging, Average","NU-9 20 mg/kg/day po, P67",59.6667 s
same,"wire hanging, Average","NU-9 20 mg/kg/day po, P74",57.7333 s
same,"wire hanging, Average","NU-9 20 mg/kg/day po, P81",60 s
same,"wire hanging, Average","NU-9 20 mg/kg/day po, P88",60 s
same,"wire hanging, Average","NU-9 20 mg/kg/day po, P95",58 s
same,"wire hanging, Average","NU-9 20 mg/kg/day po, P102",60 s
same,"wire hanging, Average","NU-9 20 mg/kg/day po, P109",60 s
same,"wire hanging, Average","NU-9 20 mg/kg/day po, P116",60 s
same,Mean (wire hanging),"NU-9 20 mg/kg/day, P60",60
same,Mean (wire hanging),"NU-9 20 mg/kg/day, P67",59.67
same,Mean (wire hanging),"NU-9 20 mg/kg/day, P74",57.73
same,Mean (wire hanging),"NU-9 20 mg/kg/day, P81",60
same,Mean (wire hanging),"NU-9 20 mg/kg/day, P88",60
same,Mean (wire hanging),"NU-9 20 mg/kg/day, P95",58
same,"wire hanging, Average","NU-9 100 mg/kg/day po, P60",58.7273 s
same,"wire hanging, Average","NU-9 100 mg/kg/day po, P67",60 s
same,"wire hanging, Average","NU-9 100 mg/kg/day po, P74",60 s
same,"wire hanging, Average","NU-9 100 mg/kg/day po, P81",60 s
same,"wire hanging, Average","NU-9 100 mg/kg/day po, P88",59.8182 s
same,"wire hanging, Average","NU-9 100 mg/kg/day po, P95",60 s
same,"wire hanging, Average","NU-9 100 mg/kg/day po, P102",60 s
same,"wire hanging, Average","NU-9 100 mg/kg/day po, P109",60 s
same,"wire hanging, Average","NU-9 100 mg/kg/day po, P116",59.697 s
same,Mean (wire hanging),"NU-9 100 mg/kg/day, P60",58.73
same,Mean (wire hanging),"NU-9 100 mg/kg/day, P67",60
same,Mean (wire hanging),"NU-9 100 mg/kg/day, P74",60
same,Mean (wire hanging),"NU-9 100 mg/kg/day, P81",60
same,Mean (wire hanging),"NU-9 100 mg/kg/day, P88",59.82
same,Mean (wire hanging),"NU-9 100 mg/kg/day, P95",60
